In ChEMBL document CHEMBL3046377, “Bioactive ellagitannins from Cunonia macrophylla, an endemic Cunoniaceae from New Caledonia” (Phytochemistry, 2005) one finds IC50, zone of inhibition and inhibition zone (IZ) data, which are given here for ten compounds.

The nature of assay [1]: Inhibition of xanthine oxidase assessed as conversion of xanthine to uric acid incubated for 3 min.
The test system of assay [2] is Staphylococcus aureus. The experiment in a line: Antimicrobial activity against Staphylococcus aureus at 100 ug after 24 hr by disk diffusion method. The format is functional. The settings on record: read-out: DIZ. For orientation: In agar diffusion tests the substance spreads into inoculated agar from a disc or well.
For assay [3], the system named is Corynebacterium accolens. The experiment in a line: Antimicrobial activity against Corynebacterium accolens at 100 ug after 24 hr by disk diffusion method. The format is functional. The settings on record: read-out: DIZ.
The subject of assay [4] is Candida albicans. The experiment in a line: Antimicrobial activity against Candida albicans at 100 ug after 24 hr by disk diffusion method. Particulars: read-out: DIZ. The format is functional.
Assay [5] concerns Pectobacterium carotovorum. The experiment in a line: Antimicrobial activity against Pectobacterium carotovorum at 100 ug after 24 hr by disk diffusion method. The format is functional. The settings on record: read-out: DIZ.
Assay [6] has as its system Pectobacterium carotovorum. The experiment in a line: Antimicrobial activity against Pectobacterium carotovorum at 10 ug after 24 hr by disk diffusion method. The format is functional, organism-based.
In assay [7] the test system is Staphylococcus aureus. The experiment in a line: Antimicrobial activity against Staphylococcus aureus at 10 ug after 24 hr by disk diffusion method. The format is functional, organism-based.
Assay [8] has as its system Corynebacterium accolens. The experiment in a line: Antimicrobial activity against Corynebacterium accolens at 10 ug after 24 hr by disk diffusion method. The format is functional, organism-based.
In assay [9] the test system is Candida albicans. The experiment in a line: Antimicrobial activity against Candida albicans at 20 ug after 24 hr by disk diffusion method. The format is functional, organism-based.

pIC50: −log10 of the molar value.

Usually pIC50 stands for the IC50 on a negative log10 scale, so that one unit is a factor of ten. For the compound `O=C(O)C[C@@H]1C(=O)O[C@H]2[C@@H]3OC(=O)c4cc(O)c(O)c(O)c4-c4c(cc(O)c(O)c4O)C(=O)OC[C@H]2O[C@@H](OC(=O)c2cc(O)c(O)c(O)c2)[C@@H]3OC(=O)c2cc(O)c(O)c3c2[C@H]1[C@H](O)C(=O)O3` [CHEBULAGIC ACID], the pIC50 in [1] was 4.32. In addition, the zone of inhibition at 100 µg/disc amounted to 11 mm in assay [2], 10 mm in [3], 12 mm in [4] and 19 mm in [5].
Take `O=C(O[C@@H]1O[C@@H]2COC(=O)c3cc(O)c(O)c(O)c3-c3c(cc(O)c(O)c3O)C(=O)O[C@H]([C@H]1O)[C@@H]2O)c1cc(O)c(O)c(O)c1` [CORILAGIN]: the pIC50 in [1] was below 4.00. The zone of inhibition at 100 µg/disc turned out to be 12 mm in assay [2], 12 mm in assay [3], 12 mm in assay [4] and 20 mm in assay [5].
As to `O=c1oc2c(O)c(O[C@@H]3OC[C@@H](O)[C@H](O)[C@H]3O)cc3c(=O)oc4c(O)c(O)cc1c4c23` [ELLAGIC ACID 4-O-XYLOPYRANOSIDE], the pIC50 in [1] is 5.33. Besides, the zone of inhibition at 100 µg/disc in [2] is 0 mm; in [3], 0 mm; in assay [4], 0 mm; in assay [5], 12 mm.
For `O=c1oc2c(O)c(O)cc3c(=O)oc4c(O)c(O)cc1c4c23` [ELLAGIC ACID], the pIC50 in [1] was 5.03. Also, the zone of inhibition at 100 µg/disc is 0 mm in assay [2], 12 mm in assay [3], 10 mm in assay [4] and 15 mm in assay [5].
The like results for `O=C(O)c1cc(O)c(O)c(O)c1` [GALLIC ACID] were, in that order, 4.38, 7 mm, 7 mm, 7 mm and 13 mm.
As to `O=C(Oc1c(O)cc2c(c1O)-c1c(cc(O)c(O)c1O)C(=O)OC[C@H]1O[C@@H](OC(=O)c3cc(O)c(O)c(O)c3)[C@H](O)[C@@H](OC2=O)[C@@H]1O)c1cc(O)c(O)c(O)c1` [MALLOREPANIN], the pIC50 in assay [1] was below 4.00. The zone of inhibition at 100 µg/disc worked out at 10 mm in [2], 10 mm in assay [3], 10 mm in assay [4] and 15 mm in assay [5].
For `O=C(O[C@@H]1O[C@@H]2COC(=O)c3cc(O)c(O)c(O)c3-c3c(cc(Oc4c(C(=O)O)cc(O)c(O)c4O)c(O)c3O)C(=O)O[C@H]([C@H]1O)[C@@H]2O)c1cc(O)c(O)c(O)c1` [MALLOTINIC ACID], the pIC50 in assay [1] is below 4.00. Also, the zone of inhibition at 100 µg/disc in [2] came out at 9 mm; in assay [3] it was 9 mm; in assay [4], 9 mm; in assay [5], 13 mm.
On to `O=c1c(O)c(-c2ccc(O)c(O)c2)oc2cc(O)cc(O)c12` [QUERCETIN], for which, in [1], the pIC50 was 5.00.
For GENTAMICIN SULFATE, the inhibition zone (IZ) in assay [6] was determined as 21 mm; in assay [7], 14 mm; in [8] it was 28 mm.
Turning to NYSTATIN, the inhibition zone (IZ) in assay [9] is 11 mm.
